# Laboratory results as given in ChEMBL document CHEMBL5346873, “Strategic modification of low-activity natural antimicrobial peptides confers antibacterial potential in vitro and in vivo” (Eur J Med Chem, 2023).
# Key:
# Assay type in all cases: functional
# [1] = system: Pseudomonas aeruginosa; assay: Antibacterial activity against Pseudomonas aeruginosa incubated for 16 to 20 hrs; details: time 16-20 hrs
# [2] = system: Klebsiella pneumoniae; assay: Antibacterial activity against NDM Klebsiella pneumoniae incubated for 16 to 20 hrs; details: time 16-20 hrs
# [3] = system: Escherichia coli; assay: Antibacterial activity against Escherichia coli incubated for 16 to 20 hrs; details: time 16-20 hrs
# [4] = system: Klebsiella aerogenes; assay: Antibacterial activity against Enterobacter aerogenes incubated for 16 to 20 hrs; details: time 16-20 hrs
# [5] = system: Vibrio vulnificus; assay: Antibacterial activity against Vibrio vulnificus 204 incubated for 16 to 20 hrs; details: time 16-20 hrs
# [6] = system: Streptococcus iniae; assay: Antibacterial activity against Streptococcus iniae incubated for 16 to 20 hrs; details: time 16-20 hrs
# [7] = system: Streptococcus agalactiae; assay: Antibacterial activity against Streptococcus agalactiae incubated for 16 to 20 hrs; details: time 16-20 hrs
# [8] = system: Acinetobacter baumannii; assay: Antibacterial activity against Acinetobacter baumannii
# [9] = system: Vibrio alginolyticus; assay: Antibacterial activity against Vibrio alginolyticus incubated for 16 to 20 hrs; details: time 16-20 hrs
# [10] = system: Vibrio harveyi; assay: Antibacterial activity against Vibrio harveyi incubated for 16 to 20 hrs; details: time 16-20 hrs
# [11] = system: Aeromonas hydrophila; assay: Antibacterial activity against Aeromonas hydrophila incubated for 16 to 20 hrs; details: time 16-20 hrs
# [12] = system: Edwardsiella tarda; assay: Antibacterial activity against Edwardsiella tarda incubated for 16 to 20 hrs; details: time 16-20 hrs
# [13] = system: Vibrio anguillarum; assay: Antibacterial activity against Listonella anguillarum incubated for 16 to 20 hrs; details: time 16-20 hrs
# [14] = system: Klebsiella oxytoca; assay: Antibacterial activity against Klebsiella oxytoca incubated for 16 to 20 hrs; details: time 16-20 hrs
# [15] = system: Salmonella enterica; assay: Antibacterial activity against Salmonella enterica incubated for 16 to 20 hrs; details: time 16-20 hrs
# [16] = system: Salmonella typhimurium; assay: Antibacterial activity against Salmonella typhimurium incubated for 16 to 20 hrs; details: time 16-20 hrs
# [17] = system: Staphylococcus haemolyticus; assay: Antibacterial activity against Staphylococcus haemolyticus incubated for 16 to 20 hrs; details: time 16-20 hrs
# [18] = system: Enterococcus faecalis; assay: Antibacterial activity against Enterococcus faecalis incubated for 16 to 20 hrs; details: time 16-20 hrs
# [19] = system: Enterococcus faecium; assay: Antibacterial activity against Enterococcus faecium incubated for 16 to 20 hrs; details: time 16-20 hrs
# [20] = system: Candida tropicalis; assay: Antifungal activity against Candida tropicalis incubated for 16 to 20 hrs; details: time 16-20 hrs
# [21] = system: Nakaseomyces glabratus; assay: Antifungal activity against Candida glabrata incubated for 16 to 20 hrs; details: time 16-20 hrs
# [22] = system: Vibrio vulnificus; assay: Antibacterial activity against Vibrio vulnificus V1 incubated for 16 to 20 hrs; details: time 16-20 hrs
# [23] = system: Vibrio vulnificus; assay: Antibacterial activity against Vibrio vulnificus V2 incubated for 16 to 20 hrs; details: time 16-20 hrs
# [24] = system: Vibrio vulnificus; assay: Antibacterial activity against Vibrio vulnificus V3 incubated for 16 to 20 hrs; details: time 16-20 hrs
# [25] = system: Pseudomonas aeruginosa; assay: Bactericidal activity against Pseudomonas aeruginosa incubated overnight
# [26] = system: Klebsiella pneumoniae; assay: Bactericidal activity against NDM Klebsiella pneumoniae incubated overnight
# [27] = system: Escherichia coli; assay: Bactericidal activity against Escherichia coli incubated overnight
# [28] = system: Klebsiella aerogenes; assay: Bactericidal activity against Enterobacter aerogenes incubated overnight
# [29] = system: Vibrio vulnificus; assay: Bactericidal activity against Vibrio vulnificus 204 incubated overnight
# [30] = system: Vibrio alginolyticus; assay: Bactericidal activity against Vibrio alginolyticus incubated overnight
# [31] = system: Vibrio harveyi; assay: Bactericidal activity against Vibrio harveyi incubated overnight
# [32] = system: Aeromonas hydrophila; assay: Bactericidal activity against Aeromonas hydrophila incubated overnight
# [33] = system: Edwardsiella tarda; assay: Bactericidal activity against Edwardsiella tarda incubated overnight
# [34] = system: Vibrio anguillarum; assay: Bactericidal activity against Listonella anguillarum incubated overnight
# [35] = system: Klebsiella oxytoca; assay: Bactericidal activity against Klebsiella oxytoca incubated overnight
# [36] = system: Salmonella enterica; assay: Bactericidal activity against Salmonella enterica incubated overnight
# [37] = system: Salmonella typhimurium; assay: Bactericidal activity against Salmonella typhimurium incubated overnight
# [38] = system: Staphylococcus haemolyticus; assay: Bactericidal activity against Staphylococcus haemolyticus incubated overnight
# [39] = system: Streptococcus iniae; assay: Bactericidal activity against Streptococcus iniae incubated overnight
# [40] = system: Streptococcus agalactiae; assay: Bactericidal activity against Streptococcus agalactiae incubated overnight
# [41] = system: Enterococcus faecalis; assay: Bactericidal activity against Enterococcus faecalis incubated overnight
# [42] = system: Enterococcus faecium; assay: Bactericidal activity against Enterococcus faecium incubated overnight
# [43] = system: Candida tropicalis; assay: Fungicidal activity against Candida tropicalis incubated overnight
# [44] = system: Nakaseomyces glabratus; assay: Fungicidal activity against Candida glabrata incubated overnight
# [45] = system: Vibrio vulnificus; assay: Bactericidal activity against Vibrio vulnificus V1 incubated overnight
# [46] = system: Vibrio vulnificus; assay: Bactericidal activity against Vibrio vulnificus V2 incubated overnight
# [47] = system: Vibrio vulnificus; assay: Bactericidal activity against Vibrio vulnificus V3 incubated overnight
# [48] = system: Vibrio vulnificus; assay: Antibacterial activity against Vibrio vulnificus 204 assessed as induction of resistance development by measuring fold increase in MIC measured after 15 passages
# [49] = system: Vibrio vulnificus; assay: Antibacterial activity against Vibrio vulnificus infected in BALB/c mouse wound infection model assessed as survival at 0.048 ug per animal administered 12 hrs post infection and measured for 14 days; details: dose 0.048 µg; time 14 day
# [50] = Salmonella enterica subsp. enterica serovar Typhimurium
compound,measurement,setting,value
C[C@@H](O)[C@H]1C(=O)N2C(C(=O)O)=C(S[C@@H]3CN[C@H](C(=O)N(C)C)C3)[C@H](C)[C@H]12 [MEROPENEM],MIC,[1],0.39 µg/mL
same,MIC,[2],200 µg/mL
same,MIC,[3],0.012 µg/mL
same,MIC,[4],0.024 µg/mL
same,MIC,[5],0.024 µg/mL
same,MIC,[6],0.39 µg/mL
same,MIC,[7],0.024 µg/mL
same,MIC,[8],0.39 µg/mL
COLISTIN,MIC,[1],< 1.56 µg/mL
same,MIC,[2],< 1.56 µg/mL
same,MIC,[3],< 1.56 µg/mL
same,MIC,[4],< 1.56 µg/mL
same,MIC,[5],25 µg/mL
same,MIC,[9],3.12 µg/mL
same,MIC,[10],> 100 µg/mL
same,MIC,[11],100 µg/mL
same,MIC,[12],6.25 µg/mL
same,MIC,[13],< 1.56 µg/mL
same,MIC,[14],12.5 µg/mL
same,MIC,[15],< 1.56 µg/mL
same,MIC,[16]; [50],< 1.56 µg/mL
same,MIC,[17],3.12 µg/mL
same,MIC,[6],12.5 µg/mL
same,MIC,[7],50 µg/mL
same,MIC,[18],< 1.56 µg/mL
same,MIC,[19],> 100 µg/mL
same,MIC,[20],12.5 µg/mL
same,MIC,[21],> 100 µg/mL
same,MIC,[22],50 µg/mL
same,MIC,[23],50 µg/mL
same,MIC,[24],50 µg/mL
same,MBC,[25],< 1.56 µg/mL
same,MBC,[26],< 1.56 µg/mL
same,MBC,[27],< 1.56 µg/mL
same,MBC,[28],< 1.56 µg/mL
same,MBC,[29],> 100 µg/mL
same,MBC,[30],3.12 µg/mL
same,MBC,[31],> 100 µg/mL
same,MBC,[32],> 100 µg/mL
same,MBC,[33],6.25 µg/mL
same,MBC,[34],6.25 µg/mL
same,MBC,[35],12.5 µg/mL
same,MBC,[36],< 1.56 µg/mL
same,MBC,[37]; [50],< 1.56 µg/mL
same,MBC,[38],3.12 µg/mL
same,MBC,[39],25 µg/mL
same,MBC,[40],50 µg/mL
same,MBC,[41],50 µg/mL
same,MBC,[42],> 100 µg/mL
same,MFC,[43],12.5 µg/mL
same,MFC,[44],> 100 µg/mL
same,MBC,[45],50 µg/mL
same,MBC,[46],50 µg/mL
same,MBC,[47],50 µg/mL
same,fold change (FC),[48],16
C[C@H]1c2cccc(O)c2C(=O)C2=C(O)[C@]3(O)C(=O)C(C(N)=O)=C(O)[C@@H](N(C)C)[C@@H]3[C@@H](O)[C@@H]21.O [DOXYCYCLINE],MIC,[1],6.25 µg/mL
same,MIC,[2],25 µg/mL
same,MIC,[3],< 1.56 µg/mL
same,MIC,[4],1.56 µg/mL
same,MIC,[5],< 1.56 µg/mL
same,MIC,[9],< 1.56 µg/mL
same,MIC,[10],< 1.56 µg/mL
same,MIC,[11],< 1.56 µg/mL
same,MIC,[12],< 1.56 µg/mL
same,MIC,[13],< 1.56 µg/mL
same,MIC,[14],3.12 µg/mL
same,MIC,[15],< 1.56 µg/mL
same,MIC,[16]; Salmonella enterica,< 1.56 µg/mL
same,MIC,[17],< 1.56 µg/mL
same,MIC,[6],< 1.56 µg/mL
same,MIC,[7],< 1.56 µg/mL
same,MIC,[18],6.25 µg/mL
same,MIC,[19],< 1.56 µg/mL
same,MIC,[20],> 100 µg/mL
same,MIC,[21],> 100 µg/mL
same,MIC,[22],< 1.56 µg/mL
same,MIC,[23],< 1.56 µg/mL
same,MIC,[24],< 1.56 µg/mL
same,MBC,[26],100 µg/mL
same,MBC,[27],50 µg/mL
same,MBC,[28],6.25 µg/mL
same,MBC,[29],< 1.56 µg/mL
same,MBC,[30],12.5 µg/mL
same,MBC,[31],12.5 µg/mL
same,MBC,[32],12.5 µg/mL
same,MBC,[33],< 1.56 µg/mL
same,MBC,[34],50 µg/mL
same,MBC,[35],25 µg/mL
same,MBC,[36],25 µg/mL
same,MBC,[37]; Salmonella enterica,50 µg/mL
same,MBC,[38],< 1.56 µg/mL
same,MBC,[39],< 1.56 µg/mL
same,MBC,[40],< 1.56 µg/mL
same,MBC,[41],6.25 µg/mL
same,MBC,[42],< 1.56 µg/mL
same,MFC,[43],> 100 µg/mL
same,MFC,[44],> 100 µg/mL
same,MBC,[45],< 1.56 µg/mL
same,MBC,[46],< 1.56 µg/mL
same,MBC,[47],< 1.56 µg/mL
same,fold change (FC),[48],128
same,MIC,[8],0.048 µg/mL
same,Activity,[49],25%
